# Test system: ROS activity
# Assay: Dihydrorhodamine-123 (DHR123) fluorescence measure of oxidation due to ROS, with H2O2 as oxidant
# Settings: DBP titrated in solution against H2O2 in the presence of DHR123 (FIG. 5)
# Excerpt: The ability of DBP to inhibit ROS activity was verified both in solution and when bound to glut-pretreated pericardium, as described above, by monitoring the fluorescence of dihydrorhodamine-123 (DHR123; Molecular Probes Inc., Eugene Oreg.), which is a commonly used measure of oxidation due to ROS. Briefly, the capacity of DBP to reduce ROS activity was proven in this system by titrating DBP in solution against the oxidant hydrogen peroxide (H2O2) in the presence of DHR123.
smiles,measurement,value
"CC(C)(C)c1cc(CCCN)cc(C(C)(C)C)c1O.Cl [DBP, 4-hydroxy-3,5-di-tert-butylphenylpropylamine hydrochloride]",oxidation signal (DHR123 fluorescence),dose-dependent inhibition of oxidation signal

# Source: patent US10058419B2, “Oxidation resistant bioprosthetic tissues and preparation thereof” (The Children's Hospital of Philadelphia, priority 2011, dated 2018)
